In patent US20070140978A1, “Adrenergic complement inhaler” (priority 2004, published 2007):

System: child with severe nasal congestion due to a cold
Assay: Severe nasal congestion due to a cold, child
Type: in vivo, human
Details: every four hours
Description: A child presents with severe nasal congestion due to a cold. […] The child then supplements the oral medication by using the composition of this Example, one spray into each nostril, following each dose of the oral medication.

## CN[C@@H](C)[C@@H](O)c1ccccc1 [pseudophedrine]
  relief of nasal congestion, oral medication alone: limited relief
